{"source": "PubChem BioAssay AID1963977", "about": "(Molecular Pharmacology Branch, DTP, NCI, 2024)", "system": "624824-186-R-J3-PDC multicell spheroids, viability", "test": "Anticancer human tumor 624824-186-R-J3-PDC patient-derived colon adenocarcinoma cell line growth inhibition [PI3K]", "settings": "for viability, T/C: stronger effect = lower value", "how_it_was_run": "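Tumor cells grown as multi-cell spheroids with HUVEC endothelial cells and MSC fibroblast-like stroma were treated with targeted agents combined with inavolisib, alpelisib, duvelisib or copanlisib. Doses fell in half-log steps from near clinical Cmax, else from 10 microM. Viability was measured.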", "key": {"[1]": {"settings": "curve of first compound, second compound 0.0316 µM"}, "[2]": {"settings": "curve of first compound, second compound 0.1 µM"}, "[3]": {"settings": "curve of first compound, second compound 0.316 µM"}, "[4]": {"settings": "curve of first compound, second compound 1 µM"}, "[5]": {"settings": "second compound 0.0316 µM, first compound 0.0316 µM"}, "[6]": {"settings": "second compound 0.0316 µM, first compound 0.1 µM"}, "[7]": {"settings": "second compound 0.0316 µM, first compound 0.316 µM"}, "[8]": {"settings": "second compound 0.0316 µM, first compound 1 µM"}, "[9]": {"settings": "second compound 0.1 µM, first compound 0.0316 µM"}, "[10]": {"settings": "second compound 0.1 µM, first compound 0.1 µM"}, "[11]": {"settings": "second compound 0.1 µM, first compound 0.316 µM"}, "[12]": {"settings": "second compound 0.1 µM, first compound 1 µM"}, "[13]": {"settings": "second compound 0.316 µM, first compound 0.0316 µM"}, "[14]": {"settings": "second compound 0.316 µM, first compound 0.1 µM"}, "[15]": {"settings": "second compound 0.316 µM, first compound 0.316 µM"}, "[16]": {"settings": "second compound 0.316 µM, first compound 1 µM"}, "[17]": {"settings": "second compound 1 µM, first compound 0.0316 µM"}, "[18]": {"settings": "second compound 1 µM, first compound 0.1 µM"}, "[19]": {"settings": "second compound 1 µM, first compound 0.316 µM"}, "[20]": {"settings": "second compound 1 µM, first compound 1 µM"}}, "note": "pIC50: −log10 of the molar value. Several values for one entry are separate records, joined by “and”; a condition that tells them apart may be missing. Equal entries are not always repeated.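 Note: spheroids exposed to agents for seven days before luminescence read.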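 Throughout, for viability, T/C: luminescent signal used as a stand-in for spheroid viability; percent viability relative to DMSO vehicle control wells taken as 100%.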", "data": [{"smiles": "CCCS(=O)(=O)Nc1ccc(F)c(C(=O)c2c[nH]c3ncc(-c4ccc(Cl)cc4)cc23)c1F", "note": "+ CC(Nc1ccc2c(c1)OCCn1cc(N3C(=O)OCC3C(F)F)nc1-2)C(N)=O", "values": [{"measurement": "pIC50", "setting": "curve of first compound, second compound 0.00316 µM", "result": 5.30}, {"measurement": "pIC50", "setting": "curve of first compound, second compound 0.01 µM", "result": 5.38}, {"measurement": "pIC50", "setting": "[1]", "result": 5.47}, {"measurement": "pIC50", "setting": "[2]", "result": 5.86}, {"measurement": "pIC50", "setting": "[3]", "result": 6.20}, {"measurement": "pIC50", "setting": "[4]", "result": 6.45}, {"measurement": "viability, T/C", "setting": "second compound 0.00316 µM, first compound 0.0316 µM", "result": 93.5, "unit": "%"}, {"measurement": "viability, T/C", "setting": "second compound 0.00316 µM, first compound 0.1 µM", "result": 89.6, "unit": "%"}, {"measurement": "viability, T/C", "setting": "second compound 0.00316 µM, first compound 0.316 µM", "result": 98.9, "unit": "%"}, {"measurement": "viability, T/C", "setting": "second compound 0.00316 µM, first compound 1 µM", "result": 88, "unit": "%"}, {"measurement": "viability, T/C", "setting": "second compound 0.00316 µM, first compound 3.16 µM", "result": 71.9, "unit": "%"}, {"measurement": "viability, T/C", "setting": "second compound 0.00316 µM, first compound 10 µM", "result": 17.3, "unit": "%"}, {"measurement": "viability, T/C", "setting": "second compound 0.01 µM, first compound 0.0316 µM", "result": 100, "unit": "%"}, {"measurement": "viability, T/C", "setting": "second compound 0.01 µM, first compound 0.1 µM", "result": 94.1, "unit": "%"}, {"measurement": "viability, T/C", "setting": "second compound 0.01 µM, first compound 0.316 µM", "result": 86.9, "unit": "%"}, {"measurement": "viability, T/C", "setting": "second compound 0.01 µM, first compound 1 µM", "result": 74.4, "unit": "%"}, {"measurement": "viability, T/C", "setting": "second compound 0.01 µM, first compound 3.16 µM", "result": 67.9, "unit": "%"}, {"measurement": "viability, T/C", "setting": "second compound 0.01 µM, first compound 10 µM", "result": 12.9, "unit": "%"}, {"measurement": "viability, T/C", "setting": "[5]", "result": 103, "unit": "%"}, {"measurement": "viability, T/C", "setting": "[6]", "result": 92.8, "unit": "%"}, {"measurement": "viability, T/C", "setting": "[7]", "result": 83.4, "unit": "%"}, {"measurement": "viability, T/C", "setting": "[8]", "result": 73.7, "unit": "%"}, {"measurement": "viability, T/C", "setting": "second compound 0.0316 µM, first compound 3.16 µM", "result": 55.6, "unit": "%"}, {"measurement": "viability, T/C", "setting": "second compound 0.0316 µM, first compound 10 µM", "result": 13.9, "unit": "%"}, {"measurement": "viability, T/C", "setting": "[9]", "result": 99, "unit": "%"}, {"measurement": "viability, T/C", "setting": "[10]", "result": 86.1, "unit": "%"}, {"measurement": "viability, T/C", "setting": "[11]", "result": 76.8, "unit": "%"}, {"measurement": "viability, T/C", "setting": "[12]", "result": 48.6, "unit": "%"}, {"measurement": "viability, T/C", "setting": "second compound 0.1 µM, first compound 3.16 µM", "result": 40.9, "unit": "%"}, {"measurement": "viability, T/C", "setting": "second compound 0.1 µM, first compound 10 µM", "result": 14.1, "unit": "%"}, {"measurement": "viability, T/C", "setting": "[13]", "result": 95.2, "unit": "%"}, {"measurement": "viability, T/C", "setting": "[14]", "result": 87.7, "unit": "%"}, {"measurement": "viability, T/C", "setting": "[15]", "result": 56.7, "unit": "%"}, {"measurement": "viability, T/C", "setting": "[16]", "result": 41.8, "unit": "%"}, {"measurement": "viability, T/C", "setting": "second compound 0.316 µM, first compound 3.16 µM", "result": 30.6, "unit": "%"}, {"measurement": "viability, T/C", "setting": "second compound 0.316 µM, first compound 10 µM", "result": 13.3, "unit": "%"}, {"measurement": "viability, T/C", "setting": "[17]", "result": 77.7, "unit": "%"}, {"measurement": "viability, T/C", "setting": "[18]", "result": 69.5, "unit": "%"}, {"measurement": "viability, T/C", "setting": "[19]", "result": 44.4, "unit": "%"}, {"measurement": "viability, T/C", "setting": "[20]", "result": 38.1, "unit": "%"}, {"measurement": "viability, T/C", "setting": "second compound 1 µM, first compound 3.16 µM", "result": 32.3, "unit": "%"}, {"measurement": "viability, T/C", "setting": "second compound 1 µM, first compound 10 µM", "result": 11.6, "unit": "%"}]}, {"smiles": "Cn1cnc2c(F)c(Nc3ccc(Br)cc3Cl)c(C(=O)NOCCO)cc21", "values": [{"measurement": "viability, T/C", "setting": "compound 0.00949 µM", "result": "97.1% and 99.4% and 96.4%"}, {"measurement": "viability, T/C", "setting": "compound 0.03 µM", "result": "87.8% and 93.3% and 90.5%"}, {"measurement": "viability, T/C", "setting": "compound 0.0949 µM", "result": "89.1% and 88.9% and 83.9%"}, {"measurement": "viability, T/C", "setting": "compound 0.3 µM", "result": "88.5% and 82.7% and 75.8%"}, {"measurement": "viability, T/C", "setting": "compound 0.949 µM", "result": "67.2% and 63.3% and 74.6%"}, {"measurement": "viability, T/C", "setting": "compound 3 µM", "result": "41.4% and 38.2% and 43.1%"}, {"measurement": "pIC50", "setting": "curve of compound", "result": "5.69 and 5.75 and 5.63"}]}, {"smiles": "CCN1CCN(Cc2ccc(Nc3ncc(F)c(-c4cc(F)c5nc(C)n(C(C)C)c5c4)n3)nc2)CC1", "note": "+ Cc1nc(NC(=O)N2CCCC2C(N)=O)sc1-c1ccnc(C(C)(C)C(F)(F)F)c1", "values": [{"measurement": "pIC50", "setting": "[1]", "result": "< 6.00"}, {"measurement": "pIC50", "setting": "[2]", "result": "< 6.00"}, {"measurement": "pIC50", "setting": "[3]", "result": "< 6.00"}, {"measurement": "pIC50", "setting": "[4]", "result": "< 6.00"}, {"measurement": "pIC50", "setting": "curve of first compound, second compound 3.16 µM", "result": 6.12}, {"measurement": "pIC50", "setting": "curve of first compound, second compound 10 µM", "result": 7.53}, {"measurement": "viability, T/C", "setting": "second compound 0.0316 µM, first compound 0.00316 µM", "result": 106, "unit": "%"}, {"measurement": "viability, T/C", "setting": "second compound 0.0316 µM, first compound 0.01 µM", "result": 99.3, "unit": "%"}, {"measurement": "viability, T/C", "setting": "[5]", "result": 106, "unit": "%"}, {"measurement": "viability, T/C", "setting": "[6]", "result": 108, "unit": "%"}, {"measurement": "viability, T/C", "setting": "[7]", "result": 100, "unit": "%"}, {"measurement": "viability, T/C", "setting": "[8]", "result": 94.2, "unit": "%"}, {"measurement": "viability, T/C", "setting": "second compound 0.1 µM, first compound 0.00316 µM", "result": 106, "unit": "%"}, {"measurement": "viability, T/C", "setting": "second compound 0.1 µM, first compound 0.01 µM", "result": 109, "unit": "%"}, {"measurement": "viability, T/C", "setting": "[9]", "result": 112, "unit": "%"}, {"measurement": "viability, T/C", "setting": "[10]", "result": 107, "unit": "%"}, {"measurement": "viability, T/C", "setting": "[11]", "result": 97.5, "unit": "%"}, {"measurement": "viability, T/C", "setting": "[12]", "result": 89.6, "unit": "%"}, {"measurement": "viability, T/C", "setting": "second compound 0.316 µM, first compound 0.00316 µM", "result": 102, "unit": "%"}, {"measurement": "viability, T/C", "setting": "second compound 0.316 µM, first compound 0.01 µM", "result": 116, "unit": "%"}, {"measurement": "viability, T/C", "setting": "[13]", "result": 97.4, "unit": "%"}, {"measurement": "viability, T/C", "setting": "[14]", "result": 94.6, "unit": "%"}, {"measurement": "viability, T/C", "setting": "[15]", "result": 88.1, "unit": "%"}, {"measurement": "viability, T/C", "setting": "[16]", "result": 73.1, "unit": "%"}, {"measurement": "viability, T/C", "setting": "second compound 1 µM, first compound 0.00316 µM", "result": 101, "unit": "%"}, {"measurement": "viability, T/C", "setting": "second compound 1 µM, first compound 0.01 µM", "result": 105, "unit": "%"}, {"measurement": "viability, T/C", "setting": "[17]", "result": 98.1, "unit": "%"}, {"measurement": "viability, T/C", "setting": "[18]", "result": 81.6, "unit": "%"}, {"measurement": "viability, T/C", "setting": "[19]", "result": 62.9, "unit": "%"}, {"measurement": "viability, T/C", "setting": "[20]", "result": 58.3, "unit": "%"}, {"measurement": "viability, T/C", "setting": "second compound 3.16 µM, first compound 0.00316 µM", "result": 85.3, "unit": "%"}, {"measurement": "viability, T/C", "setting": "second compound 3.16 µM, first compound 0.01 µM", "result": 92, "unit": "%"}, {"measurement": "viability, T/C", "setting": "second compound 3.16 µM, first compound 0.0316 µM", "result": 77.8, "unit": "%"}, {"measurement": "viability, T/C", "setting": "second compound 3.16 µM, first compound 0.1 µM", "result": 57, "unit": "%"}, {"measurement": "viability, T/C", "setting": "second compound 3.16 µM, first compound 0.316 µM", "result": 47.9, "unit": "%"}, {"measurement": "viability, T/C", "setting": "second compound 3.16 µM, first compound 1 µM", "result": 51.6, "unit": "%"}, {"measurement": "viability, T/C", "setting": "second compound 10 µM, first compound 0.00316 µM", "result": 64.6, "unit": "%"}, {"measurement": "viability, T/C", "setting": "second compound 10 µM, first compound 0.01 µM", "result": 59.6, "unit": "%"}, {"measurement": "viability, T/C", "setting": "second compound 10 µM, first compound 0.0316 µM", "result": 50.4, "unit": "%"}, {"measurement": "viability, T/C", "setting": "second compound 10 µM, first compound 0.1 µM", "result": 41.5, "unit": "%"}, {"measurement": "viability, T/C", "setting": "second compound 10 µM, first compound 0.316 µM", "result": 36.6, "unit": "%"}, {"measurement": "viability, T/C", "setting": "second compound 10 µM, first compound 1 µM", "result": 48.6, "unit": "%"}]}]}
